Assay results taken from publication PMC2196011 (The Journal of Experimental Medicine, 2002).

Target: T1, GST-PfNSMase (PfNSM product; plasmodial SM/LCPL-PLC) (Plasmodium falciparum, UniProt Q8WSF5)
T1 sequence (Q8WSF5 1-393): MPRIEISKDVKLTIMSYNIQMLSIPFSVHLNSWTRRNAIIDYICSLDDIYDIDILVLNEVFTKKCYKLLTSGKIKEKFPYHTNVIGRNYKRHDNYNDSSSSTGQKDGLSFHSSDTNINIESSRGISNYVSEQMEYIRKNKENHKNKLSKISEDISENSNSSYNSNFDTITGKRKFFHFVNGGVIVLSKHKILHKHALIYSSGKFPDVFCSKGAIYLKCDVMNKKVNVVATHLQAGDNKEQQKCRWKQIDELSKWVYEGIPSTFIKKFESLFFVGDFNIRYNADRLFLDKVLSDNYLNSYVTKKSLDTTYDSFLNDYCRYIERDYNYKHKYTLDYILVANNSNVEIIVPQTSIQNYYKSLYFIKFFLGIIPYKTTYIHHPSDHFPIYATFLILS
Experiment: competition of […]lysoPtdCho hydrolysis, E. coli membrane fraction
Type: biochemical
Conditions: 10 μM [palmitoyl-1-14C]lysoPtdCho; detergent-free; 10 mM MgCl2; pH 7.5; 37°C

## CCCCCCCCCCCCCCCCOC[C@@H](O)COP(=O)([O-])OCC[N+](C)(C)C [lysoPAF]
  % of control activity: The activity was moderately competed by PAF and lysoPAF

## CCCCCCCCCCCCC/C=C/[C@@H](O)[C@@H](N)COP(=O)([O-])OCC[N+](C)(C)C [sphingosylphosphocholine]
  % of control activity: lysoPtdCho was strongly competed by sphingosylphosphocholine
